From PubChem BioAssay AID248 (DTP/NCI, 2004)
“And” between values parts separate entries of the source, which are not always exact repeats. Equal values may be shown once. Inconclusive results and toxic doses are left out. Rule as the data show it: active = T/C of 150% or more; inactive = T/C below 125%.

Test system: L1210 leukemia ip in BDF1 mice, survival T/C
Experiment: NCI In Vivo Anticancer Drug Screen. Data for tumor model L1210 Leukemia (intraperitoneal) in B6D2F1 (BDF1) mice
Settings: endpoint: mean survival time, higher = longer survival
How it was run: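 Antitumor effect is assessed in tumor-bearing animals. Survival in the compound arm is compared with a vehicle-dosed control arm and expressed as their quotient.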

[1] = dose: 100.0 mg/kg/injection, schedule: Q01DX001 (ip), vehicle: saline
[2] = dose: 200.0 mg/kg/injection, schedule: Q01DX001 (ip), vehicle: saline
[3] = dose: 400.0 mg/kg/injection, schedule: Q01DX001 (ip), vehicle: saline
[4] = dose: 20.0 mg/kg/injection, schedule: Q01DX001 (ip), vehicle: saline
[5] = dose: 40.0 mg/kg/injection, schedule: Q01DX001 (ip), vehicle: saline
[6] = dose: 80.0 mg/kg/injection, schedule: Q01DX001 (ip), vehicle: saline
[7] = dose: 100.0 mg/kg/injection, schedule: Q01DX009 (ip), vehicle: saline
[8] = dose: 200.0 mg/kg/injection, schedule: Q01DX009 (ip), vehicle: saline
[9] = dose: 400.0 mg/kg/injection, schedule: Q01DX009 (ip), vehicle: saline
[10] = dose: 100.0 mg/kg/injection, schedule: Q04DX003 (ip), vehicle: saline with Tween-80
[11] = dose: 200.0 mg/kg/injection, schedule: Q04DX003 (ip), vehicle: saline with Tween-80
[12] = dose: 400.0 mg/kg/injection, schedule: Q04DX003 (ip), vehicle: saline with Tween-80
[13] = dose: 100.0 mg/kg/injection, schedule: Q01DX009 (ip), vehicle: saline with Tween-80
[14] = dose: 200.0 mg/kg/injection, schedule: Q01DX009 (ip), vehicle: saline with Tween-80
[15] = dose: 400.0 mg/kg/injection, schedule: Q01DX009 (ip), vehicle: saline with Tween-80

Measured: T/C

CC(/C=N\N)=N\N
inactive: dose: 15.0 mg/kg/injection, schedule: Q01DX Z (ip), vehicle: saline 91 % of control | dose: 15.0 mg/kg/injection, schedule: Q01DX Z (oral), vehicle: saline 101 % of control | dose: 30.0 mg/kg/injection, schedule: Q01DX Z (ip), vehicle: saline 108 % of control | dose: 30.0 mg/kg/injection, schedule: Q01DX Z (oral), vehicle: saline 116 % of control | dose: 60.0 mg/kg/injection, schedule: Q01DX Z (ip), vehicle: saline 91 % of control

CCC(=O)Cc1ccc2[nH]c(C)cc(=O)c2c1
inactive: [1] 96 % of control | [2] 98 % of control | [3] 88 % of control

O=C(Nc1ccc(NC(=O)/C(Cl)=C/Cl)c2c1C(=O)c1ccccc1C2=O)/C(Cl)=C/Cl
inactive: dose: 100.0 mg/kg/injection, schedule: Q01DX001 (ip), vehicle: carboxymethylcellulose (CMC) 92 % of control | dose: 200.0 mg/kg/injection, schedule: Q01DX001 (ip), vehicle: carboxymethylcellulose (CMC) 92 % of control | dose: 400.0 mg/kg/injection, schedule: Q01DX001 (ip), vehicle: carboxymethylcellulose (CMC) 100 % of control

C[C@]12CC[C@H]3[C@@H](CC[C@]4(O)C[C@@H](O)CC[C@]34C=O)[C@@]1(O)CC[C@@H]2c1ccc(=O)oc1
inactive: dose: 5.0 mg/kg/injection, schedule: Q01DX001 (ip), vehicle: saline 96 % of control | dose: 10.0 mg/kg/injection, schedule: Q01DX001 (ip), vehicle: saline 95 % of control | [4] 104 % of control | [5] 98 % of control | [6] 95 % of control

Cc1ccc2ccc(-c3ccccc3)nc2c1
inactive: [1] 96 % of control | [7] 93 % of control | [2] 105 % of control | [8] 90 % of control | [3] 109 % of control | [9] 92 % of control

Nc1nc(=O)c2ccccc2s1
inactive: [1] 97 % of control | [10] 101 % of control | [2] 98 % of control | [11] 108 % of control | [3] 97 % of control | [12] 106 % of control

Cc1cc(Cl)ccc1OCC(=O)OCCC1=CCC2CC1C2(C)C (stereo unspecified)
inactive: [7] 94 % of control | [8] 100 % of control | [9] 102 % of control

N#CCCC(C#N)(c1ccncc1)N1CCOCC1 (stereo unspecified)
inactive: dose: 12.5 mg/kg/injection, schedule: Q01DX009 (ip), vehicle: saline with Tween-80 105 % of control | dose: 25.0 mg/kg/injection, schedule: Q01DX009 (ip), vehicle: saline with Tween-80 102 % of control | dose: 50.0 mg/kg/injection, schedule: Q01DX009 (ip), vehicle: saline with Tween-80 94 % of control and 91 % of control

CCCc1ccc(O)c(O)c1
inactive: [4] 103 % of control | dose: 20.0 mg/kg/injection, schedule: Q01DX009 (ip), vehicle: saline 105 % of control | [5] 96 % of control | dose: 40.0 mg/kg/injection, schedule: Q01DX009 (ip), vehicle: saline 93 % of control | [6] 92 % of control

CCCCCCCCCCNc1ccc(Cl)nn1
inactive: [10] 93 % of control | [11] 93 % of control | [12] 90 % of control

COc1ccc(Br)cc1/C=N/N=C/c1cc(Br)ccc1OC
inactive: [13] 89 % of control | [10] 111 % of control | [14] 92 % of control | [11] 93 % of control | [15] 94 % of control | [12] 95 % of control

CNC(=O)Oc1ccc(NC(=O)OC)cc1
inactive: [10] 93 % of control | [11] 87 % of control

O=Cc1[nH]c(=S)[nH]c(=O)c1Cc1cccc(Cl)c1
inactive: [13] 100 % of control | [10] 94 % of control | [14] 100 % of control | [11] 94 % of control | [15] 100 % of control | [12] 90 % of control
